Assay results from US8603502B2, “Compositions comprising jasmonic acid derivatives and use of these derivatives” (L'Oreal S.A., priority 2002, dated 2013).

Assays:
Type in all cases: cell-based
isolated stratum corneum [1] = test: Keratolytic power, Test 2: counting corneocytes released from isolated stratum corneum, comparison with jasmonic acid; conditions: 1% by weight solution in PBS + 0.1% Triton X100, pH 7.4; 37° C., 24 hours
Experimental: (§1) The keratolytic power of a number of compounds of this disclosure was studied. This test comprises counting corneocytes released following incubation of patches of isolated stratum corneum in the presence of the test compounds.
(§2) Stratum corneum isolated by trypsin/heat from surgical plasties was used. A number of different stratum corneum samples were used. Discs of 4 mm in diameter were punched out and placed at the bottom of a 96-well plate.
A 1% by weight solution of the compound of Example 1, or jasmonic acid (comparison), was prepared in a PBS buffer supplemented with 0.1% of Triton X100. The pH of the solution was adjusted to 7.4.
(§3) 50 microliters of test solution or of control solution (PBS buffer supplemented with 0.1% of Triton X100) were added to each well. Incubation was carried out at 37° C. with stirring for 24 hours.
(§4) 10 microliters of solution were then withdrawn and were placed in a Malassez cell. The liberated corneocytes were counted under the microscope.
The results obtained are as follows, expressed as the number of liberated corneocytes per microliter, averaged over three tests. Corneocyte fragments are not counted.

isolated stratum corneum [2] = test: Keratolytic power, Test 1: counting corneocytes released after incubating patches of isolated stratum corneum with the test compound; conditions: 1% by weight solution in PBS + 0.1% Triton X100, pH 7.4, 37° C., 24 hours
Experimental: as §1, §2
A 1% by weight solution of the compound of Example 3 was prepared in a PBS buffer supplemented with 0.1% of Triton X100. The pH of the solution was adjusted to 7.4.
as §3, §4
The results obtained are as follows, expressed as the number of liberated corneocytes per microliter, averaged over three tests. Corneocyte fragments were not counted.

isolated stratum corneum [3] = test: Keratolytic power, Test 3: counting corneocytes released from isolated stratum corneum, PEG 8/ethanol vehicle; conditions: 2% by weight solution in water with 50% PEG 8 and 30% ethanol, 37° C., 24 hours; for number of liberated corneocytes per microliter, Sample 1: Sample 1, average over three tests; for number of liberated corneocytes per microliter, Sample 2: Sample 2, average over three tests; for number of liberated corneocytes per microliter, Average: average of Samples 1-2
Experimental: as §1, §2
A 2% by weight solution of the compound of Example 3, or 2-hydroxy-4-octanoylbenzoic acid (comparison), was prepared in an aqueous solution containing 50% by weight of polyethylene glycol (PEG 8) and 30% by weight of ethanol.
50 microliters of test solution or of control solution were added to each well. Incubation was carried out at 37° C. with stirring for 24 hours.
10 microliters of solution were then withdrawn and were placed in a Mallassez cell. The liberated corneocytes were counted under the microscope.
The results obtained are as follows, expressed as the number of liberated corneocytes per microliter, averaged over the three tests. Corneocyte fragments were not counted.

CC/C=C\C[C@H]1C(=O)CC[C@@H]1CC(=O)O (racemic) [Jasmonic acid, (+/−)(1R,2R)-3-oxo-2-[(2Z)-2-pentyl]cyclopentaneacetic acid] was tested, and the “number of liberated corneocytes per microliter, Average (3 tests per sample, 3 different samples)” value (isolated stratum corneum [1]) was 15 ± 5 per microliter.
CCCCC[C@H]1C(O)CC[C@@H]1CC(=O)O (mixture of isomers) [Example 3, (+/−)(1R,2R)-3-hydroxy-2-pentylcyclopentaneacetic acid] was tested, and the “number of liberated corneocytes per microliter, Average” value (isolated stratum corneum [2]; average of Samples 1-3) was 61 ± 33 per microliter, the “number of liberated corneocytes per microliter, Sample 1” value (shortened to “number … per microliter, Sample 1”) (isolated stratum corneum [2]; stratum corneum Sample 1, average over three tests) was 28 ± 9 per microliter and the “number of liberated corneocytes per microliter, Sample 2” value (“number … per microliter, Sample 2” for short) (isolated stratum corneum [2]; stratum corneum Sample 2, average over three tests) was 56 ± 7 per microliter. For the same compound, the “number of liberated corneocytes per microliter, Sample 3” value (isolated stratum corneum [2]; stratum corneum Sample 3, average over three tests) was 101 ± 11 per microliter, the “number … per microliter, Sample 1” value (isolated stratum corneum [3]) was 2 ± 3 per microliter and the “number … per microliter, Sample 2” value (isolated stratum corneum [3]) was 3 ± 1 per microliter. For the same compound, the “number of liberated corneocytes per microliter, Average” value (isolated stratum corneum [3]) was 2.5 ± 2 per microliter.
In the case of CCCCCCCC(=O)c1ccc(C(=O)O)c(O)c1 [2-Hydroxy-4-octanoylbenzoic acid, 2-hydroxy-4-octanoylbenzoic acid, reference compound], the “number … per microliter, Sample 1” value (isolated stratum corneum [3]) is reported as 3 ± 3 per microliter, the “number … per microliter, Sample 2” value (isolated stratum corneum [3]) is reported as 4 ± 3 per microliter and the “number of liberated corneocytes per microliter, Average” value (isolated stratum corneum [3]) is reported as 3.5 ± 3 per microliter.
For CC/C=C\C[C@H]1C(O)CC[C@@H]1CC(=O)O (mixture of isomers) [Example 1, (+/−)(1R,2R)-3-hydroxy-2-[(2Z)-2-pentenyl]cyclopentaneacetic acid], the “number of liberated corneocytes per microliter, Average (3 tests per sample, 3 different samples)” value (isolated stratum corneum [1]) was 26 ± 7 per microliter.
